# Measurements: patent publication US20050059585A1, “Methionine aminopeptidase-2 inhibitors and methods of use thereof” (Praecis Pharmaceuticals Inc., priority 2000, published 2005)
# Experiments:
# Assay in all cases: tumor cell line panel, SRB growth assay
# Assay type in all cases: cell-based
# [1] = system: SK-OV-3; details: Homo sapiens; SK-OV-3, Ovarian, 48 hours
# Protocol: (§1) The compound of example 5 was also evaluated against a panel of cancer cell lines (Alley, M.C. et al. […] Cancer Research 48: 589-601; Grever, M. R., et al. (1992) Seminars in Oncology, Vol. 19, No. 6, pp 622-638; Boyd, M. R., and Paull, K. D. (1995) Drug Development Research 34: 91-109). The human tumor cell lines of the cancer screening panel were grown in RPMI 1640 medium containing 5% fetal bovine serum and 2 mM L-glutamine. Cells were inoculated into 96 well microtiter plates in 100 μL at plating densities ranging from 5,000 to 40,000 cells/well depending on the doubling time of individual cell lines. After cell inoculation, the microtiter plates were incubated at 37° C., 5 % CO2, 95 % air and 100 % relative humidity for 24 hours prior to addition of experimental drugs.
# (§2) After the 24 hour incubation period, two plates of each cell line were fixed in situ with TCA, to represent a measurement of the cell population for each cell line at the time of drug addition (Tz). Experimental drugs were solubilized in dimethyl sulfoxide at 400-fold the desired final maximum test concentration and stored frozen prior to use. At the time of drug addition, an aliquot of frozen concentrate was thawed and diluted to twice the desired final maximum test concentration with complete medium containing 50 μg/ml gentamicin. Additional four, 10-fold or ½ log serial dilutions were made to provide a total of five drug concentrations plus control. Aliquots of 100 μl of these different drug dilutions were added to the appropriate microtiter wells already containing 100 μl of medium, resulting in the required final drug concentrations.
# (§3) Following drug addition, the plates were incubated for an additional 48 hours at 37° C., 5 % CO2, 95 % air, and 100 % relative humidity. For adherent cells, the assay was terminated by the addition of cold TCA. Cells were fixed in situ by the gentle addition of 50 μl of cold 50 % (w/v) TCA (final concentration, 10% TCA) and incubated for 60 minutes at 4° C. The supernatant was discarded, and the plates were washed five times with tap water and air dried. Sulforhodamine B (SRB) solution (100 μl) at 0.4 % (w/v) in 1 % acetic acid were added to each well, and plates were incubated for 10 minutes at room temperature. After staining, unbound dye was removed by washing five times with 1 % acetic acid and the plates were air dried. Bound stain was subsequently solubilized with 10 mM trizma base, and the absorbance was read on an automated plate reader at a wavelength of 515 nm. For suspension of the cells, the methodology used was the same except that the assay was terminated by fixing settled cells at the bottom of the wells by gently adding 50 μl of 80 % TCA (final concentration, 16% TCA). Using the seven absorbance measurements [time zero, (Tz), control growth, (C), and test growth in the presence of drug at the five concentration levels (Ti)], the percentage growth was calculated at each of the drug concentrations levels.
# (§4) Percentage growth inhibition was calculated as: [(Ti−Tz)/(C−Tz)]×100 for concentrations for which Ti>/=Tz [(Ti−Tz)/Tz]×100 for concentrations for which Ti<Tz.
# (§5) Growth inhibition of 50% (GI50) was calculated from [(Ti−Tz)/(C−Tz)]×100=50, which is the drug concentration resulting in a 50% reduction in the net protein increase (as measured by SRB staining) in control cells during the drug incubation. The G150 was calculated for each of the cell lines if the level of activity is reached; however, if the effect was not reached or is exceeded, the value for that parameter is expressed as greater or less than the maximum (10^−4 M) or minimum (10^−8 M) concentration tested.
# [2] = system: HCT-116; details: Homo sapiens; HCT-116, Colon, 48 hours
# Protocol: as §1, §2, §3, §4, §5
# [3] = system: M14; details: Homo sapiens; M14, Melanoma, 48 hours
# Protocol: as §1, §2, §3, §4, §5
# [4] = system: UACC-257; details: Homo sapiens; UACC-257, Melanoma, 48 hours
# Protocol: as §1, §2, §3, §4, §5
# [5] = system: OVCAR-3; details: Homo sapiens; OVCAR-3, Ovarian, 48 hours
# Protocol: as §1, §2, §3, §4, §5
# [6] = system: NCI-H322M; details: Homo sapiens, Non-Small Cell Lung, 48 hours
# Protocol: as §1, §2, §3, §4, §5
# [7] = system: OVCAR-5; details: Homo sapiens; OVCAR-5, Ovarian, 48 hours
# Protocol: as §1, §2, §3, §4, §5
# [8] = system: K-562; details: Homo sapiens, K562; K-562, Leukemia, 48 hours
# Protocol: as §1, §2, §3, §4, §5
# [9] = system: NCI-H460; details: Homo sapiens; NCI-H460, Non-Small Cell Lung, 48 hours
# Protocol: as §1, §2, §3, §4, §5
# [10] = system: MOLT-4; details: Homo sapiens; MOLT-4, Leukemia, 48 hours
# Protocol: as §1, §2, §3, §4, §5
# [11] = system: SK-MEL-5; details: Homo sapiens; SK-MEL-5, Melanoma, 48 hours
# Protocol: as §1, §2, §3, §4, §5
# [12] = system: COLO 205; details: Homo sapiens; COLO 205, Colon, 48 hours
# Protocol: as §1, §2, §3, §4, §5
# [13] = system: SF-295; details: Homo sapiens; SF-295, CNS, 48 hours
# Protocol: as §1, §2, §3, §4, §5
# [14] = system: OVCAR-4; details: Homo sapiens; OVCAR-4, Ovarian, 48 hours
# Protocol: as §1, §2, §3, §4, §5
# [15] = system: HL-60(TB); details: Homo sapiens, Leukemia, 48 hours
# Protocol: as §1, §2, §3, §4, §5
# [16] = system: UACC-62; details: Homo sapiens; UACC-62, Melanoma, 48 hours
# Protocol: as §1, §2, §3, §4, §5
# [17] = system: MALME-3M; details: Homo sapiens, Melanoma, 48 hours
# Protocol: as §1, §2, §3, §4, §5
# [18] = system: EKVX; details: Homo sapiens, Non-Small Cell Lung, 48 hours
# Protocol: as §1, §2, §3, §4, §5
# [19] = system: SF-539; details: Homo sapiens; SF-539, CNS, 48 hours
# Protocol: as §1, §2, §3, §4, §5
# [20] = system: NCI/ADR-RES; details: Homo sapiens, Breast, 48 hours
# Protocol: as §1, §2, §3, §4, §5
# [21] = system: 786-0; details: Homo sapiens; 786-0, Renal, 48 hours
# Protocol: as §1, §2, §3, §4, §5
smiles,measurement,setting,value
"CO[C@@H]1[C@H](OC(=O)N[C@@H](C(N)=O)C(C)C)CC[C@]2(CO2)[C@H]1[C@@]1(C)O[C@@H]1CC=C(C)C [Example 5, (1-Carbamoyl-2-methyl-propyl)-carbamic acid-(3R, 4S, 5S, 6R )-5-methoxy-4-[(2R, 3R)-2-methyl-3-(3-methyl-but-2-enyl)-oxiranyl]-1-oxa-spiro[2.5]oct-6-yl ester]",GI50,[1],7.37 µM
same,GI50,[2],< 0.01 µM
same,GI50,[3],< 0.01 µM
same,GI50,[4],1.48 µM
same,GI50,[5],41.8 µM
same,GI50,[6],0.0468 µM
same,GI50,[7],0.0135 µM
same,GI50,[8],64.4 µM
same,GI50,[9],< 0.01 µM
same,GI50,[10],35.6 µM
same,GI50,[11],> 100 µM
same,GI50,[12],< 0.01 µM
same,GI50,[13],< 0.01 µM
same,GI50,[14],36.6 µM
same,GI50,[15],21.7 µM
same,GI50,[16],< 0.01 µM
same,GI50,[17],0.0531 µM
same,GI50,[18],20.8 µM
same,GI50,[19],20.6 µM
same,GI50,[20],34.2 µM
same,GI50,[21],16.1 µM
